Results taken from patent publication US11697648B2, “Fused pyrimidine pyridinone compounds as JAK inhibitors” (THERAVANCE BIOPHARMA R&D IP, LLC, priority 2019, dated 2023).

Assays:
JAK1 = JAK1 (Homo sapiens (Human), UniProt P23458); test: Biochemical JAK1 kinase assay (LanthaScreen)
How it was run: (§1)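 GST-JAK + GFP-STAT1 peptide, HEPES pH 7.5/MgCl2/EGTA/Brij-35 buffer; cpd preincubation 1 h RT; ATP start, 1 h RT; stop with 10 mM EDTA + 2 nM Tb-anti-pSTAT1; TR-FRET 520/495. 4-parameter IC50 → pKi (Cheng-Prusoff).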

JAK2 = JAK2 (Homo sapiens (Human), UniProt O60674); test: Biochemical JAK2 kinase assay (LanthaScreen)
JAK2, sequence (O60674 whole entry): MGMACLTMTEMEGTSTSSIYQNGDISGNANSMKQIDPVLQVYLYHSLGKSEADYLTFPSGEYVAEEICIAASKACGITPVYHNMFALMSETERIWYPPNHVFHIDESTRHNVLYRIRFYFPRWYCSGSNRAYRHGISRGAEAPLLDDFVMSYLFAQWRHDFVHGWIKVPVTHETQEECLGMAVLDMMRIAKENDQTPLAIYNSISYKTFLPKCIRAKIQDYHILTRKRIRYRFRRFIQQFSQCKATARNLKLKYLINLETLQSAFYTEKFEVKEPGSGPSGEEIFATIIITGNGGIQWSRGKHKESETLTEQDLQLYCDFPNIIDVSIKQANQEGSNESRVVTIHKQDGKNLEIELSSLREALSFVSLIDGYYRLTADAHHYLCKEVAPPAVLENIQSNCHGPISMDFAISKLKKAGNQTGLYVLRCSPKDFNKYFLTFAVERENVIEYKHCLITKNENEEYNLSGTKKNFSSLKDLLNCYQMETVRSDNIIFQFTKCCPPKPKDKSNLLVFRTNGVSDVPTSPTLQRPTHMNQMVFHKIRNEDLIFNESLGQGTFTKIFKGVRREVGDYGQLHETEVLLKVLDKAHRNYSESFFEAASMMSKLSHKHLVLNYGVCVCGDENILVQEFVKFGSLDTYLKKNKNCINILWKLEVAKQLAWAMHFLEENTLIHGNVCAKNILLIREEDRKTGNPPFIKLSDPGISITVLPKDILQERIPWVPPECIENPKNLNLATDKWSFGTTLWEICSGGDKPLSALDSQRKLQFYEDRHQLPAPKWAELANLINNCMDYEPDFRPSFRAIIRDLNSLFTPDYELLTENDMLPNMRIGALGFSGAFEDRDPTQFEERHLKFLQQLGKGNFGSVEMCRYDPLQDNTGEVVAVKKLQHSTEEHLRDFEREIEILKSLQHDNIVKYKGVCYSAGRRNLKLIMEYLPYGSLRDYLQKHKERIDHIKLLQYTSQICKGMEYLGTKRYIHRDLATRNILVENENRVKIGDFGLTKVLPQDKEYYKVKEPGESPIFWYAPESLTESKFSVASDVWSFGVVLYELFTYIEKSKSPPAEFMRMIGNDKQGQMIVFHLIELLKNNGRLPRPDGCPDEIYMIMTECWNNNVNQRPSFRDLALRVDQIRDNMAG
How it was run: as §1

JAK3 = JAK3 (Homo sapiens (Human), UniProt P52333); test: Biochemical JAK3 kinase assay (LanthaScreen); details: for JAK3 (pKi)-JAK1 (pKi): selectivity JAK3 over JAK1, difference of pKi
JAK3, sequence (P52333 whole entry): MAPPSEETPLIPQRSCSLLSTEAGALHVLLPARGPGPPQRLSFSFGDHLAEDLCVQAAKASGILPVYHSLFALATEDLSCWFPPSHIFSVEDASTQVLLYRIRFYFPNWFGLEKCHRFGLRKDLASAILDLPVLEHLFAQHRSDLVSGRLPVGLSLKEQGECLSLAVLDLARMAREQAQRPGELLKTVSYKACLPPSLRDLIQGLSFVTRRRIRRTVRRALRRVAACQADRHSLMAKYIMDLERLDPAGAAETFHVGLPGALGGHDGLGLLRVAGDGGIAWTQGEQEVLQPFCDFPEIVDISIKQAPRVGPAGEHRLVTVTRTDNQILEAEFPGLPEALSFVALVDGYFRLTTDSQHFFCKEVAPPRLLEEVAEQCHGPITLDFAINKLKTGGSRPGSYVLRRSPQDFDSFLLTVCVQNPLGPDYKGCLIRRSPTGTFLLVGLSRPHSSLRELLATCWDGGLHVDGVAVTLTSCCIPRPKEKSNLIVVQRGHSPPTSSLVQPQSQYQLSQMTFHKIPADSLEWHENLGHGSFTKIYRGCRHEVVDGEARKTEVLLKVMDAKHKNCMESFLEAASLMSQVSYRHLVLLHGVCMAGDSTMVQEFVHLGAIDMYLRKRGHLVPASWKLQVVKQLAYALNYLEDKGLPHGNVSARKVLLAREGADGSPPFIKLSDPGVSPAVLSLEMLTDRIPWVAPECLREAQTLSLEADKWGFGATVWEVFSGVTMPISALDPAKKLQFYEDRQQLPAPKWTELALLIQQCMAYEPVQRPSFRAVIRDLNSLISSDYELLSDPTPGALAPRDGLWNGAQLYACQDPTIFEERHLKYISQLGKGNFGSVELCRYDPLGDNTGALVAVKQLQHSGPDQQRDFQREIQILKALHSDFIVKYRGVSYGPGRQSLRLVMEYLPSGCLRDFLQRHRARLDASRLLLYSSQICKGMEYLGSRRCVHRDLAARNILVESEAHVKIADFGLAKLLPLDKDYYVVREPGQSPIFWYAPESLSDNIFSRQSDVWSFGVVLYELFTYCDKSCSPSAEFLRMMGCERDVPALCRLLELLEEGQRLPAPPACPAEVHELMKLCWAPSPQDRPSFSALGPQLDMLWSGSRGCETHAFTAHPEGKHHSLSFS
How it was run: as §1

Tyk2 = Tyk2 (Homo sapiens (Human), UniProt P29597); test: Biochemical Tyk2 kinase assay (LanthaScreen)
Tyk2, sequence (P29597 whole entry): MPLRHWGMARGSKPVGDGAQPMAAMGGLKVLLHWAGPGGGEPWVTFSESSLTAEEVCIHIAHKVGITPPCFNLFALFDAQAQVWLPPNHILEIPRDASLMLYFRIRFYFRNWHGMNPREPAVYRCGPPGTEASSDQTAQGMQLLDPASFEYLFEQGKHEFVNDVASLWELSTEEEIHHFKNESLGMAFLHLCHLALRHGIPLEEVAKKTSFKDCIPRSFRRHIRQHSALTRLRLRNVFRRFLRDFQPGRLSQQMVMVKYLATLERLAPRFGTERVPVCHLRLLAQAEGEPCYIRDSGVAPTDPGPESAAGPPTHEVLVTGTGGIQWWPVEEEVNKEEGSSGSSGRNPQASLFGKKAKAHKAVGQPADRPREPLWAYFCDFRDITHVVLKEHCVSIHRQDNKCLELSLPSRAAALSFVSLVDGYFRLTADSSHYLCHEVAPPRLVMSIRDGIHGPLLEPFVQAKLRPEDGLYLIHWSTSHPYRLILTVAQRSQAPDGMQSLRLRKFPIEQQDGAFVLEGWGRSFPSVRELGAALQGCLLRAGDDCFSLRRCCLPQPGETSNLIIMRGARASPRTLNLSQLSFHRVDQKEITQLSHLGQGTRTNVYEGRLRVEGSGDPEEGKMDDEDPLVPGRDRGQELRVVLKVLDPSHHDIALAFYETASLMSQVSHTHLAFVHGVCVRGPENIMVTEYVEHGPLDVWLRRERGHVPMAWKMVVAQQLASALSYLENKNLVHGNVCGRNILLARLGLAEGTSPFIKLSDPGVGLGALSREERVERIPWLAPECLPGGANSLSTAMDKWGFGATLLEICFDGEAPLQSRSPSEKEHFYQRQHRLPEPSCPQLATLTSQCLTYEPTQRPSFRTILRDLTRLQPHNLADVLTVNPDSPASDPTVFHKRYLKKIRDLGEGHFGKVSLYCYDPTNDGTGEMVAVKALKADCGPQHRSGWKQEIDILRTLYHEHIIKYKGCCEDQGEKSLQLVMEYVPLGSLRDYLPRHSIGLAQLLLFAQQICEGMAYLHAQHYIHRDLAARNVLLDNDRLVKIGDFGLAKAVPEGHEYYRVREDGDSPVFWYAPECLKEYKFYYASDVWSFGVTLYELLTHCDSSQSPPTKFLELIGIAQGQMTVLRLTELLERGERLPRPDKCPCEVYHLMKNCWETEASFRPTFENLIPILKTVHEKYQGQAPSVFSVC
How it was run: as §1

[1] = tested on: IL-2 stimulated STAT5 phosphorylation in Tall-1 human T cell line (JAK3); test: Cellular JAK3 potency assay: inhibition of IL-2 stimulated pSTAT5 in Tall-1 T cells; type: cell-based; details: IL-2 stimulated pSTAT5, Tall-1 T cells
How it was run: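 Tall-1 cells, 45,000 per well, preincubated 1 hour with compound at 37 °C, then stimulated 30 minutes with IL-2 at 300 ng/ml final. pSTAT5 (Tyr694/699) in lysates quantified by AlphaLISA SureFire Ultra. pIC50 derived from inhibition curves, given as mean with SD.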

Caco-2 cell monolayers = test: Caco-2 permeation assay; type: in vitro ADME; details: 5 μM, A-B direction, with Verapamil (25 μM)
Method: Assay 4: Caco-2 Permeation Assay
The Caco-2 permeation assay was performed to model the ability of test compounds to pass through the intestine and get into the blood stream after oral administration. The rate at which test compounds in solution permeate a cell monolayer designed to mimic the tight junction of human small intestinal monolayers was determined.
CacoReady 24-well transwell plates were obtained from ADMEcell (Alameda, Calif.). The compounds were evaluated at a concentration of 5 μM from 10 mM DMSO stock solutions in duplicate (n=2). The passive permeability of the compounds tested was evaluated using Caco-2 cell monolayers along with Verapamil (25 μM) to inhibit P-gp transport proteins in the apical to basolateral (A-B) direction. The experiment was conducted in a 37° C., 5% CO2 incubator. Caco-2 culture media consisted of standard filtered DMEM, FCS 10%, L-Glutamine 1% and PenStrep 1%. Basal assay plate was prepared by adding 750 μL of transport buffer to A-B wells. A CacoReady™ plate was prepared by removing the Caco-2 media from the apical wells and replacing with fresh transport media (200 μL repeated for a total of 3 washes). Blank media (200 μL) was then replaced with diluted compound for A-B wells. To begin the incubation, the basal plate was removed from the incubator and the apical section was added on top of it. Samples (40 μL) were collected from the apical and basal compartments for time zero (t0). Samples were collected again after 120 minutes (t120) from the apical and basal compartments. All samples were diluted and prepared for bioanalysis by LC-MS/MS. The permeation coefficient (Kp, mean A to B+ Verapamil Papparent) in cm/sec was calculated as dQ (flux)/(dt×Area×concentration).
In this assay, a Kp value less than about 5×10^−6 cm/sec is considered favorable to minimize systemic exposure and target the colon. A Kp value less than about 10×10^−6 cm/sec may also be sufficient to minimize systemic exposure and target the colon.

JAK1, sequence (P23458 whole entry): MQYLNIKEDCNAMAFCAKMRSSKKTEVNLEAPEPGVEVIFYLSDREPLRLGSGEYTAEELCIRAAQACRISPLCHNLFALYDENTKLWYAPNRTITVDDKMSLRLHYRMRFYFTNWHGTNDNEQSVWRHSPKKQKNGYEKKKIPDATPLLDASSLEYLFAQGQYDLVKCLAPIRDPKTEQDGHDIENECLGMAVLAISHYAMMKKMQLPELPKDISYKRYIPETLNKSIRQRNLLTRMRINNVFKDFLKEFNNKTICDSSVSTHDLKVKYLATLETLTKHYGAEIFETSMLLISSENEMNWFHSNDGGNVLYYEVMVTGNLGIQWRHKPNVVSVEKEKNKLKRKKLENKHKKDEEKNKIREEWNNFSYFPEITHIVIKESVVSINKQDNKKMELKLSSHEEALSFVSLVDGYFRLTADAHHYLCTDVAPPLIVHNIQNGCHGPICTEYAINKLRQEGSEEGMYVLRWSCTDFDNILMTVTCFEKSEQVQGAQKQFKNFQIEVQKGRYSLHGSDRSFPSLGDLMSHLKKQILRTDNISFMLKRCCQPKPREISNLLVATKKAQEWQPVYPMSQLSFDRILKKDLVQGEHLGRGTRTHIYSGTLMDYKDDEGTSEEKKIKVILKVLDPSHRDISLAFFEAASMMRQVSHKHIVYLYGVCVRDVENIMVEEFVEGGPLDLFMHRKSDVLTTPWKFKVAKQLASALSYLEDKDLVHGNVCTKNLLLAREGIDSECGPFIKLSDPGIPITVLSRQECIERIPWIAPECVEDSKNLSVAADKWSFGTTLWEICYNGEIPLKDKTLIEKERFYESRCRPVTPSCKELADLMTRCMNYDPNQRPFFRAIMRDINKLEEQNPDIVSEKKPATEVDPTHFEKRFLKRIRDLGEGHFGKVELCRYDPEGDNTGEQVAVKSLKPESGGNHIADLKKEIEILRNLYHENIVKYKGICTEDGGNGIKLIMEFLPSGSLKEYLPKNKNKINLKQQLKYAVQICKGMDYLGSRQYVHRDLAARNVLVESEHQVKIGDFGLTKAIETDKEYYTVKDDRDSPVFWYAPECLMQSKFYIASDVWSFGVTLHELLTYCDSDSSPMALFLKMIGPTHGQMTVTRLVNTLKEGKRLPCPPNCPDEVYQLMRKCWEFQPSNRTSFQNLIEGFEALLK

Row | Structure (SMILES) | JAK 1 (pKi) (JAK1) | JAK 2 (pKi) (JAK2) | JAK 3 (pKi) (JAK3) | JAK3 (pKi)-JAK1 (pKi) (JAK3) | Tyk 2 (pKi) (Tyk2) | Tall-1 (pIC50) [1] | Caco Kp (Caco-2 cell monolayers)
1 | C=CC(=O)N1CC(CCn2c(=O)ccc3cnc(Nc4ccc5c(c4)oc(=O)n5C)nc32)C1 [Example 60] | E (E represents a pKi value of 7 or below (Ki of 100 nM or above)) | E (E represents a pKi value of 7 or below (Ki of 100 nM or above)) | B (B represents pKi value between 9 and 10 (Ki between 1 nM and 0.1 nM)) | A (A represents a value of 3 or above) | E (E represents a pKi value of 7 or below (Ki of 100 nM or above)) | B (B represents a pC50 value between 6.7 (included) and 7.5 (IC50 between 200 nM and 32 nM)) | B (B represents a value between 5×10^−6 and 10×10^−6 cm/sec)
2 | C=CC(=O)N1CC(CCn2c(=O)ccc3cnc(Nc4cnn(CCN5CCOCC5)c4)nc32)C1 [Example 61] | E (E represents a pKi value of 7 or below (Ki of 100 nM or above)) | E (E represents a pKi value of 7 or below (Ki of 100 nM or above)) | B (B represents pKi value between 9 and 10 (Ki between 1 nM and 0.1 nM)) | A (A represents a value of 3 or above) | E (E represents a pKi value of 7 or below (Ki of 100 nM or above)) | B (B represents a pC50 value between 6.7 (included) and 7.5 (IC50 between 200 nM and 32 nM)) | A (A represents a value below 5×10^−6 cm/sec)
3 | C=CC(=O)N1CC(CCn2c(=O)ccc3cnc(Nc4ccc(N5CCN(C(C)(C)C)CC5)cc4)nc32)C1 [Example 62] | E (E represents a pKi value of 7 or below (Ki of 100 nM or above)) | E (E represents a pKi value of 7 or below (Ki of 100 nM or above)) | B (B represents pKi value between 9 and 10 (Ki between 1 nM and 0.1 nM)) | A (A represents a value of 3 or above) | E (E represents a pKi value of 7 or below (Ki of 100 nM or above)) | A (A represents a pIC50 value≥7.5 (IC50≤32 nM)) | B (B represents a value between 5×10^−6 and 10×10^−6 cm/sec)
4 | C=CC(=O)N1CC(CCn2c(=O)ccc3cnc(Nc4cnn(CCF)c4)nc32)C1 [Example 63] | E (E represents a pKi value of 7 or below (Ki of 100 nM or above)) | E (E represents a pKi value of 7 or below (Ki of 100 nM or above)) | B (B represents pKi value between 9 and 10 (Ki between 1 nM and 0.1 nM)) | A (A represents a value of 3 or above) | E (E represents a pKi value of 7 or below (Ki of 100 nM or above)) | B (B represents a pC50 value between 6.7 (included) and 7.5 (IC50 between 200 nM and 32 nM)) | A (A represents a value below 5×10^−6 cm/sec)
5 | C=CC(=O)N1CC(CCn2c(=O)ccc3cnc(Nc4ccc(-n5cccn5)cc4)nc32)C1 [Example 66] | E (E represents a pKi value of 7 or below (Ki of 100 nM or above)) | E (E represents a pKi value of 7 or below (Ki of 100 nM or above)) | B (B represents pKi value between 9 and 10 (Ki between 1 nM and 0.1 nM)) | A (A represents a value of 3 or above) | E (E represents a pKi value of 7 or below (Ki of 100 nM or above)) | B (B represents a pC50 value between 6.7 (included) and 7.5 (IC50 between 200 nM and 32 nM)) | C (C represents a value between 10×10^−6 and 30×10^−6 cm/sec)
6 | C=CC(=O)N1CC(CCn2c(=O)ccc3cnc(Nc4ccc(-n5ccnn5)cc4)nc32)C1 [Example 67] | E (E represents a pKi value of 7 or below (Ki of 100 nM or above)) | E (E represents a pKi value of 7 or below (Ki of 100 nM or above)) | B (B represents pKi value between 9 and 10 (Ki between 1 nM and 0.1 nM)) | A (A represents a value of 3 or above) | E (E represents a pKi value of 7 or below (Ki of 100 nM or above)) | B (B represents a pC50 value between 6.7 (included) and 7.5 (IC50 between 200 nM and 32 nM)) | B (B represents a value between 5×10^−6 and 10×10^−6 cm/sec)
7 | C=CC(=O)N1CC(CCn2c(=O)ccc3cnc(Nc4ccc(NS(C)(=O)=O)cc4)nc32)C1 [Example 69] | E (E represents a pKi value of 7 or below (Ki of 100 nM or above)) | E (E represents a pKi value of 7 or below (Ki of 100 nM or above)) | A (A represents a pKi value≥10 (Ki≤0.1 nM)) | A (A represents a value of 3 or above) | E (E represents a pKi value of 7 or below (Ki of 100 nM or above)) | B (B represents a pC50 value between 6.7 (included) and 7.5 (IC50 between 200 nM and 32 nM)) | A (A represents a value below 5×10^−6 cm/sec)
8 | C=CC(=O)N1CC(CCn2c(=O)ccc3cnc(Nc4ccc(N5CCN(C(=O)COC)CC5)cc4)nc32)C1 [Example 70] | E (E represents a pKi value of 7 or below (Ki of 100 nM or above)) | E (E represents a pKi value of 7 or below (Ki of 100 nM or above)) | B (B represents pKi value between 9 and 10 (Ki between 1 nM and 0.1 nM)) | A (A represents a value of 3 or above) | E (E represents a pKi value of 7 or below (Ki of 100 nM or above)) | B (B represents a pC50 value between 6.7 (included) and 7.5 (IC50 between 200 nM and 32 nM)) | A (A represents a value below 5×10^−6 cm/sec)
9 | C=CC(=O)N1CC(CCn2c(=O)ccc3cnc(Nc4ccc(N5CCN(C(=O)OC)CC5)cc4)nc32)C1 [Example 71] | E (E represents a pKi value of 7 or below (Ki of 100 nM or above)) | E (E represents a pKi value of 7 or below (Ki of 100 nM or above)) | B (B represents pKi value between 9 and 10 (Ki between 1 nM and 0.1 nM)) | A (A represents a value of 3 or above) | E (E represents a pKi value of 7 or below (Ki of 100 nM or above)) | B (B represents a pC50 value between 6.7 (included) and 7.5 (IC50 between 200 nM and 32 nM)) | B (B represents a value between 5×10^−6 and 10×10^−6 cm/sec)
10 | C=CC(=O)N1CC(CCn2c(=O)ccc3cnc(Nc4ccc(N5CCN(C(=O)CC#N)CC5)cc4)nc32)C1 [Example 72] | E (E represents a pKi value of 7 or below (Ki of 100 nM or above)) | E (E represents a pKi value of 7 or below (Ki of 100 nM or above)) | B (B represents pKi value between 9 and 10 (Ki between 1 nM and 0.1 nM)) | A (A represents a value of 3 or above) | E (E represents a pKi value of 7 or below (Ki of 100 nM or above)) | B (B represents a pC50 value between 6.7 (included) and 7.5 (IC50 between 200 nM and 32 nM)) | A (A represents a value below 5×10^−6 cm/sec)
11 | C=CC(=O)N1CC(CCn2c(=O)ccc3cnc(Nc4cccc(N5CCN(C(C)=O)CC5)c4)nc32)C1 [Example 78] | E (E represents a pKi value of 7 or below (Ki of 100 nM or above)) | E (E represents a pKi value of 7 or below (Ki of 100 nM or above)) | B (B represents pKi value between 9 and 10 (Ki between 1 nM and 0.1 nM)) | A (A represents a value of 3 or above) | E (E represents a pKi value of 7 or below (Ki of 100 nM or above)) | B (B represents a pC50 value between 6.7 (included) and 7.5 (IC50 between 200 nM and 32 nM)) | A (A represents a value below 5×10^−6 cm/sec)
